The record followed here is ChEMBL document CHEMBL5634084, “Design and optimization of selective and potent CDK9 inhibitors with flavonoid scaffold for the treatment of acute myeloid leukemia” (Eur J Med Chem, 2023).

Series [1] addresses CDK2/Cyclin A2 (Homo sapiens) (UniProt P24941+P20248). In words: Inhibition of CDK2/CyclinA2 (unknown origin) at 100 nM by ADP-Glo assay relative to control. Type of series: protein-complex assay. For orientation: In ADP-Glo the light output rises with the ADP produced.
Series [2] has as its system MV4-11. The series can be described thus: Antiproliferative activity against human MV4-11 cells assessed as reduction in cell viability measured after 72 hrs. Type of series: functional, cell-based. Particulars: MV4-11, 72 h.
In series [3] the target is CDK9/cyclin T1 (Homo sapiens) (UniProt O60563+P50750). In words: Inhibition of CDK9/CyclinT1 (unknown origin) at 100 nM by ADP-Glo assay relative to control. Type of series: protein-complex assay.
Series [4] in a line: Toxicity in BALB/c mouse xenografted with human MV4-11 cells assessed as animal's mortality at 10 to 20 mg/kg, iv qd. Type of series: organism-based. Particulars: in vivo, dose 10-20 mg/kg. On the technique in general: In xenograft studies the graft and the host belong to different species.
Series [5] in a line: Toxicity in BALB/c mouse xenografted with human MV4-11 cells assessed as effect on body weight at 10 to 20 mg/kg, iv qd. Type of series: organism-based. The note with it: in vivo, dose 10-20 mg/kg.
Series [6] can be described thus: Solubility of the compound in water at pH 7.4. It is filed as physicochemical.
A short description of series [7]: Metabolic stability of the compound in mouse liver microsomes at 10 uM measured for 60 mins in presence of NADPH by LC-MS/MS analysis. Type of series: ADME, Microsome. The note with it: 1 h. (In general: Liver microsomes are vesicles of endoplasmic reticulum, rich in cytochrome P450 enzymes.)
The test system of series [8] is HCT-116. In words: Antiproliferative activity against human HCT-116 cells assessed as reduction in cell viability measured after 72 hrs. It is filed as functional, cell-based. The note with it: HCT-116, 72 h.
For series [9], the system named is MCF7. The series can be described thus: Antiproliferative activity against human MCF7 cells assessed as reduction in cell viability measured after 72 hrs. It is filed as functional, cell-based. Particulars: MCF7, 72 h.
For series [10], the system named is THP-1. The series can be described thus: Antiproliferative activity against human THP-1 cells assessed as reduction in cell viability measured after 72 hrs. It is filed as functional, cell-based. Particulars: THP-1, 72 h.
Series [11] concerns A549. In words: Antiproliferative activity against human A549 cells assessed as reduction in cell viability measured after 72 hrs. Type of series: functional, cell-based. The note with it: A549, 72 h.
Series [12] in a line: Metabolic stability of the compound in rat liver microsomes at 10 uM measured for 60 mins in presence of NADPH by LC-MS/MS analysis. It is filed as ADME, Microsome. The note with it: 1 h.
In series [13] the test system is BT-549. The series can be described thus: Antiproliferative activity against human BT-549 cells assessed as reduction in cell viability measured after 72 hrs. Type of series: functional, cell-based. The note with it: BT-549, 72 h.
Series [14] is described as follows: Cytotoxicity against human L02 cells assessed as reduction in cell viability measured after 72 hrs. Type of series: toxicity, cell-based.
The test system of series [15] is MOLM-13. In words: Antiproliferative activity against human MOLM-13 cells assessed as reduction in cell viability measured after 72 hrs. It is filed as functional, cell-based. The note with it: MOLM-13, 72 h.
Series [16] addresses CDK6/cyclin D1 (Homo sapiens, UniProt Q00534). The series can be described thus: Inhibition of CDK6/CyclinD1 (unknown origin) by ADP-Glo assay. It is filed as protein-complex assay.
A short description of series [17]: Metabolic stability of the compound in rat plasma at 10 uM measured for 60 mins by LC-MS/MS analysis. It is filed as ADME, cell-free. Particulars: 1 h.
Series [18] concerns SW480. The series can be described thus: Antiproliferative activity against human SW480 cells assessed as reduction in cell viability measured after 72 hrs. Type of series: functional, cell-based. The note with it: SW480, 72 h.
Series [19] in a line: Inhibition of CDK1/CyclinA2 (unknown origin) by ADP-Glo assay. The arrangement: species or system Homo sapiens.
Series [20] concerns MV4-11. In words: Antitumor activity against human MV4-11 cells xenografted in BALB/c mouse assessed as inhibition of tumor growth at 10 mg/kg, iv qd and measured every 2 days. Type of series: functional. Particulars: MV4-11, 48 h, read-out: TGI.
In series [21] the test system is MV4-11. In words: Antitumor activity against human MV4-11 cells xenografted in BALB/c mouse assessed as inhibition of tumor growth at 20 mg/kg, iv qd and measured every 2 days. Type of series: functional. Particulars: MV4-11, 48 h, read-out: TGI.
Series [22] in a line: Cytotoxicity against human HEK293 cells assessed as reduction in cell viability measured after 72 hrs. It is filed as toxicity, cell-based.
For series [23], the target named is Cyclin-dependent kinase 4/cyclin D1 (Homo sapiens, UniProt P11802). The series can be described thus: Inhibition of CDK4/CyclinD1 (unknown origin) by ADP-Glo assay. Type of series: protein-complex assay.
For series [24], the target named is CDK7/Cyclin H/MNAT1 (Homo sapiens, UniProt P50613). The series can be described thus: Inhibition of CDK7/Cyclin H/MAT1 (unknown origin) by ADP-Glo assay. It is filed as protein-complex assay.
Series [25] relates to HepG2. The series can be described thus: Antiproliferative activity against human HepG2 cells assessed as reduction in cell viability measured after 72 hrs. It is filed as functional, cell-based. Particulars: HepG2, 72 h.
The test system of series [26] is HT-29. In words: Antiproliferative activity against human HT-29 cells assessed as reduction in cell viability measured after 72 hrs. Type of series: functional, cell-based. The note with it: HT-29, 72 h.
In series [27] the test system is HL-60. The series can be described thus: Antiproliferative activity against human HL-60 cells assessed as reduction in cell viability measured after 72 hrs. It is filed as functional, cell-based. The note with it: HL-60, 72 h.

In brackets after ≈: the same amount, converted by molar mass. Activity calls are given as the source filed them. The rule behind the calls is not given here.

Usually inhibition stands for the percentage by which the read-out fell short of the control. The term IC50 denotes the concentration needed to halve the response being measured. By solubility is commonly meant how much of the substance goes into solution per volume.

CDK6/cyclin D1, sequence (P24385 whole entry): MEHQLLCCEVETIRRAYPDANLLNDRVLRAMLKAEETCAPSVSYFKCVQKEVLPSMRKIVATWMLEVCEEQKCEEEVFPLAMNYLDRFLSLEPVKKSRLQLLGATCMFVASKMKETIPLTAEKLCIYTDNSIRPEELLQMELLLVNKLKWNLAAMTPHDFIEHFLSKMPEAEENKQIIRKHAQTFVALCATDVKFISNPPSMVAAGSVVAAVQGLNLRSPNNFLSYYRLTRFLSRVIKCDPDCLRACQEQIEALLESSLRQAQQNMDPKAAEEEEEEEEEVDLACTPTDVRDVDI
CDK6/cyclin D1, sequence (Q00534 whole entry): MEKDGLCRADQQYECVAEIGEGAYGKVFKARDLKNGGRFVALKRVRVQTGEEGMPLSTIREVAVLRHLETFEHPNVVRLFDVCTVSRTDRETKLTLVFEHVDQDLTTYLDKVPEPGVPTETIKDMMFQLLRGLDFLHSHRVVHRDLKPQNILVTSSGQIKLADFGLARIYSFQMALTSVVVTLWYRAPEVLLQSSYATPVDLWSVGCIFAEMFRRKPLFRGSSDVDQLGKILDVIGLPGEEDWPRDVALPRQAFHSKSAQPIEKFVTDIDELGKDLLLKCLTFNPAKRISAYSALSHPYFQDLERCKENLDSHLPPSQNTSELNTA
Cyclin-dependent kinase 4/cyclin D1, sequence (P11802 whole entry): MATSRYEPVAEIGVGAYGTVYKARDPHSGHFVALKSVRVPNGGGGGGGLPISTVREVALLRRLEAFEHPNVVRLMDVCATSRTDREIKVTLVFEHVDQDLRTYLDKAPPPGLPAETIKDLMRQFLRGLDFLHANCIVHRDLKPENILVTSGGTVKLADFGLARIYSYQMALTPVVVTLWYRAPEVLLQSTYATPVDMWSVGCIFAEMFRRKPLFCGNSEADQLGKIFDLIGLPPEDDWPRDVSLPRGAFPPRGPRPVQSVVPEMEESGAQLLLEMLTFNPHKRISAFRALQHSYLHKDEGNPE
Cyclin-dependent kinase 4/cyclin D1, sequence (P24385 whole entry, further chain): as the sequence (P24385 whole entry) above
CDK7/Cyclin H/MNAT1, sequence (P51946 whole entry): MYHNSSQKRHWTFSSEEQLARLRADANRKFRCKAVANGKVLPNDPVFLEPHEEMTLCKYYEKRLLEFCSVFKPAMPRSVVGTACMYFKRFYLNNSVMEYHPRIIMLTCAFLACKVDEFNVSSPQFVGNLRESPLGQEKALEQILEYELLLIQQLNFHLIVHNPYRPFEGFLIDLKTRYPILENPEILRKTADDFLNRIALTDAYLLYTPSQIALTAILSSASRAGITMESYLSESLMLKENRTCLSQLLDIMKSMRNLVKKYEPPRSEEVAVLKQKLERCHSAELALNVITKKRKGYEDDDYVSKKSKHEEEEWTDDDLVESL
CDK7/Cyclin H/MNAT1, sequence (P50613 whole entry): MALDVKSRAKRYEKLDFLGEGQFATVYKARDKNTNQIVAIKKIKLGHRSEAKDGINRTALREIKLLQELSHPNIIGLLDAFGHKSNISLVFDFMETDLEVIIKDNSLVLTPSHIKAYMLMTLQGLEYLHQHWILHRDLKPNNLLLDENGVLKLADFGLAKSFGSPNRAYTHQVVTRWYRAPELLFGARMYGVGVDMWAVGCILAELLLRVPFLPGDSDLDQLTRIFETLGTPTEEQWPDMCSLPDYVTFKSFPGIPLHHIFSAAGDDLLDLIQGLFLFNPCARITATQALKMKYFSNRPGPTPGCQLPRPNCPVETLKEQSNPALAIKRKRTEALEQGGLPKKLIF
CDK7/Cyclin H/MNAT1, sequence (P51948 whole entry, further chain): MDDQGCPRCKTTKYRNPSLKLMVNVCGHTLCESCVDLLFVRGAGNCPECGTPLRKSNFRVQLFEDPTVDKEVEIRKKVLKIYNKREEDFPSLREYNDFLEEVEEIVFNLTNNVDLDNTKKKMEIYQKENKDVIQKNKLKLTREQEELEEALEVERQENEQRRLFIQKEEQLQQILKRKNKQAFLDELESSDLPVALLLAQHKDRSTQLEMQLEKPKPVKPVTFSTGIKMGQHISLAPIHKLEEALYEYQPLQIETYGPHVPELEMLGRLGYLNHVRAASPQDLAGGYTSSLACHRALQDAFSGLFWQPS

`COc1cc(O)c2c(=O)cc(-c3ccc(N4CCN(C)CC4)cc3)oc2c1N1CCC(N2CCOCC2)CC1`: the inhibition in [1] worked out at 24.5%; in series [3], 70%. Also, in [2], the IC50 was 210 nM.
For the compound `COc1cc(O)c2c(=O)cc(-c3ccc(N4CCC(N5CCOCC5)CC4)cc3)oc2c1N1CCNCC1`, the inhibition in [1] is 4.7%; in series [3] it was 78%. For the same compound, the concentration for half-maximal inhibition (IC50) in series [2] came to 310 nM.
In the case of `COc1cc(O)c2c(=O)cc(-c3ccc(N4CCN(C)CC4)cc3)oc2c1N1CCN(C)CC1`, the values for the inhibition in [1] and in [3] were 23.5% and 75.8%, respectively. Besides, the half-maximal inhibitory concentration (IC50) in series [2] was found to be 100 nM.
For the compound `COc1cc(O)c2c(=O)cc(-c3ccc(N4CCN(C)CC4)cc3)oc2c1N1CCNCC1`, the Activity entry in series [4] and in series [5] was “Non-Toxic” throughout. The compound further had a solubility in series [6] of 450 µg/mL (≈ 999 µM). Also, the Stability entry in series [7], in series [12] and in [17] was “Stable” throughout. For the same compound, the IC50 in series [8] amounted to 690 nM; in series [9] it was 1500 nM; in series [10], 4260 nM; in [11], 1150 nM; in series [13] it was 1850 nM; in series [2] it was 80 nM. In addition, the concentration for half-maximal inhibition (IC50) in series [15] was 1110 nM; in [16], 2220 nM; in [18] it was 990 nM; in [19], 1780 nM; in [23] it was 311 nM; in series [24], 4520 nM. Also, the results for the 50% inhibitory concentration (IC50) in [25], in [26] and in series [27] were 1770 nM, 880 nM and 120 nM, respectively. Moreover, the inhibition in [1] amounted to 8.3%; in [3] it was 75%. Moreover, the concentration for half-maximal inhibition (IC50) at 72 h in [14] came to 17700 nM; in series [22] it was 25500 nM. Besides, the inhibition in vivo at 10 mg/kg in series [20] was 48%. Moreover, in series [21], the inhibition in vivo at 20 mg/kg was determined as 61%.
In the case of `COc1cc(O)c2c(=O)cc(-c3ccc(N4CCN(C)CC4)cc3)oc2c1Oc1c(C)n[nH]c1C`, the inhibition in series [1] came out at 14.2%; in series [3], 75.8%. Besides, the half-maximal inhibitory concentration (IC50) in series [2] was determined as 2020 nM.
The corresponding values for `COc1cc(O)c2c(=O)cc(-c3ccc(N4CCC(N5CCOCC5)CC4)cc3)oc2c1C1=CCN(C)CC1` are 29%, 90.9% and 330 nM.
Take `COc1cc(O)c2c(=O)cc(-c3ccc(N4CCNCC4)cc3)oc2c1N1CCNCC1`: the inhibition result in series [1] is “inactive”. Besides, the 50% inhibitory concentration (IC50) in series [2] is 100 nM. The inhibition in [3] was 70.8%.
The like results for `COc1cc(O)c2c(=O)cc(-c3ccc(N4CCCC4)cc3)oc2c1N1CCNCC1` were, in that order, 4.7%, 170 nM and 79.6%.
The corresponding values for `COc1cc(O)c2c(=O)cc(-c3ccc(N4CCNCC4)cc3)oc2c1C1=CCN(C)CC1` are “inactive”, 130 nM and 98.6%.
In the case of `COc1cc(O)c2c(=O)cc(-c3ccc(N4CCN(C)CC4)cc3)oc2c1N1CCCC1`, the inhibition entry in series [1] was “inactive”. Also, the 50% inhibitory concentration (IC50) in [2] was 70 nM. The inhibition in [3] came out at 17.6%.
As to `COc1cc(O)c2c(=O)cc(-c3ccc(N4CCN(C)CC4)cc3)oc2c1[C@H]1CCN(C)[C@@H]1CO`, the inhibition result in series [1] was “inactive”. The half-maximal inhibitory concentration (IC50) in series [2] worked out at 70 nM. The compound also showed an inhibition in series [3] of 1.4%.
On to `COc1cc(O)c2c(=O)cc(-c3ccc(N4CCCNCC4)cc3)oc2c1N1CCNCC1`, for which the inhibition in [1] turned out to be 18.9%; in series [3], 78%. In addition, the IC50 in series [2] worked out at 210 nM.
In the case of `COc1cc(O)c2c(=O)cc(-c3ccc(N4CCN(C)CC4)cc3)oc2c1[C@H]1CCN(C)C[C@H]1O`, the inhibition in series [1] was determined as 5.4%; in [3] it was 64.9%. The 50% inhibitory concentration (IC50) in series [2] came out at 180 nM.
The corresponding values for `COc1cc(O)c2c(=O)cc(-c3ccc(N4CCOCC4)cc3)oc2c1N1CCNCC1` are 17.5%, 74.4% and 170 nM.
The corresponding values for `COc1cc(O)c2c(=O)cc(-c3ccc(N4CCCNCC4)cc3)oc2c1C1=CCN(C)CC1` are 32.5%, 99% and 150 nM.
The like results for `COc1cc(O)c2c(=O)cc(-c3ccc(N4CCN(C)CC4)cc3)oc2c1N1CCOCC1` were, in that order, “inactive”, 44.4% and 110 nM.
With `COc1cc(O)c2c(=O)cc(-c3ccc(N4CCN(C)CC4)cc3)oc2c1`, in series [1], the inhibition result was “inactive”. Further, the IC50 in series [2] was determined as 2020 nM. This compound had an inhibition in series [3] of 5.1%.
In the case of `COc1cc(O)c2c(=O)cc(-c3ccc(N4CCN(C)CC4)cc3)oc2c1N1CCCCC1`, the inhibition result in [1] is “inactive”. Further, the IC50 in [2] amounted to 1230 nM. For the same compound, in [3], the inhibition was 47.5%.
